From patent US20240368173A1, “TRICYCLIC GPR65 MODULATORS” (PATHIOS THERAPEUTICS LIMITED, priority 2021, published 2024)

Target: human recombinant GPR65 (Homo sapiens, UniProt Q8IYL9)
Experiment: Human GPR65 cAMP HTRF antagonist assay
Format: cell-based
Details: not given
Procedure, shortened: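 Antagonism measured as suppression of the cAMP rise when pH is dropped to 7.2 (control wells pH 7.9) in 1321N1 cells stably carrying human GPR65. Cells in KRH with 1 mM IBMX and 200 μM EDTA saw compound 30 min, then acid stimulation 30 min; HTRF cAMP detection, normalised, 4-parameter logistic IC50.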

human recombinant GPR65, sequence (Q8IYL9 whole entry): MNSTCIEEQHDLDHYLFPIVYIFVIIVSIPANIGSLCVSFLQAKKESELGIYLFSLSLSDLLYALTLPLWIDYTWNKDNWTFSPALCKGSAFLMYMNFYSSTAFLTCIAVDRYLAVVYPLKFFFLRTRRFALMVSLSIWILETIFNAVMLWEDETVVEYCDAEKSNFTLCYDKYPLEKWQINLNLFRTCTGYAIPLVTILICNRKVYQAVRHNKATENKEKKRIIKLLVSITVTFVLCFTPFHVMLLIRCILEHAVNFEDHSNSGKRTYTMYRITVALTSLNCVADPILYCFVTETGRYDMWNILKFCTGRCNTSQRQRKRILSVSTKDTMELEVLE

| Structure (SMILES) | IC50 [nM] |
| --- | --- |
| O=C(Nc1cc(Cl)c(Cl)cc1F)N1[C@H]2CC[C@@H]1c1c(O)cnc(F)c1C2 [Compound 104, (5R,8S)—N-(4,5-Dichloro-2-fluorophenyl)-1-fluoro-4-hydroxy-6,7,8,9-tetrahydro-5H-5,8-epiminocyclohepta[c]pyridine-10-carboxamide] | < 500 |
| O=C(Nc1cc(C(F)(F)F)on1)N1[C@H]2CC[C@@H]1c1n[nH]c(=O)cc1C2 [Compound 110, (6S,9R)-3-Oxo-N-(5-(trifluoromethyl)isoxazol-3-yl)-3,5,6,7,8,9-hexahydro-2H-6,9-epiminocyclohepta[c]pyridazine-10-carboxamide] | < 500 |
| CO[C@H]1C[C@@H](Oc2ccc(-c3cc(F)c(NC(=O)N4[C@H]5CC[C@@H]4c4n[nH]c(=O)cc4C5)cc3Cl)cn2)C1 [Compound 304, (6S,9R)-N-(5-Chloro-2-fluoro-4-(6-((1s,3S)-3-methoxycyclobutoxy)pyridin-3-yl)phenyl)-3-oxo-3,5,6,7,8,9-hexahydro-2H-6,9-epiminocyclohepta[c]pyridazine-10-carboxamide] | < 500 |
| CS(=O)(=O)c1ccc(-c2cc(F)c(NC(=O)N3[C@H]4CC[C@@H]3c3n[nH]c(=O)cc3C4)cc2Cl)cc1 [Compound 131, (6S,9R)-N-(2-Chloro-5-fluoro-4′-(methylsulfonyl)-[1,1′-biphenyl]-4-yl)-3-oxo-3,5,6,7,8,9-hexahydro-2H-6,9-epiminocyclohepta[c]pyridazine-10-carboxamide] | < 500 |
| O=C(Nc1cc(Cl)c(C(F)(F)F)cc1F)N1[C@@H]2CC[C@H]1c1n[nH]c(=O)cc1C2 [Compound 19, (6R,9S)-N-(5-Chloro-2-fluoro-4-(trifluoromethyl)phenyl)-3-oxo-3,5,6,7,8,9-hexahydro-2H-6,9-epiminocyclohepta[c]pyridazine-10-carboxamide] | < 500 |
| O=C(Nc1cc(Cl)c(F)cc1F)N1C2CCC1c1n[nH]c(=O)cc1C2 (racemic) [Compound 52, (±)-N-(5-Chloro-2,4-difluorophenyl)-3-oxo-3,5,6,7,8,9-hexahydro-2H-6,9-epiminocyclohepta[c]pyridazine-10-carboxamide] | < 500 |
| O=C(Nc1cc(Cl)c(-c2ccc(OCC(F)F)nc2)cc1F)N1[C@H]2CC[C@@H]1c1n[nH]c(=O)cc1C2 [Compound 305, (6S,9R)-N-(5-Chloro-4-(6-(2,2-difluoroethoxy)pyridin-3-yl)-2-fluorophenyl)-3-oxo-3,5,6,7,8,9-hexahydro-2H-6,9-epiminocyclohepta[c]pyridazine-10-carboxamide] | < 500 |
| O=C(Nc1cc(Cl)c(-c2ccc3nsnc3c2)cc1F)N1[C@H]2CC[C@@H]1c1ccnc(F)c1C2 [Compound 177, (5R,8S)-N-(4-(benzo[c][1,2,5]thiadiazol-5-yl)-5-chloro-2-fluorophenyl)-1-fluoro-6,7,8,9-tetrahydro-5H-5,8-epiminocyclohepta[c]pyridine-10-carboxamide] | < 500 |
| O=C(Nc1cc(Cl)c(-c2ccnc(F)c2)cc1F)N1[C@H]2CC[C@@H]1c1ccnc(F)c1C2 [Compound 268, (5R,8S)-N-(5-Chloro-2-fluoro-4-(2-fluoropyridin-4-yl)phenyl)-1-fluoro-6,7,8,9-tetrahydro-5H-5,8-epiminocyclohepta[c]pyridine-10-carboxamide] | < 500 |
| Cc1cc(-c2cc(F)c(NC(=O)N3[C@H]4CC[C@@H]3c3n[nH]c(=O)cc3C4)cc2Cl)ccn1 [Compound 134, (6S,9R)-N-(5-Chloro-2-fluoro-4-(2-methylpyridin-4-yl)phenyl)-3-oxo-3,5,6,7,8,9-hexahydro-2H-6,9-epiminocyclohepta[c]pyridazine-10-carboxamide] | < 500 |
| O=C(Nc1cc(-c2ccc3nonc3c2)c(C(F)(F)F)cc1F)N1[C@H]2CC[C@@H]1c1ccnc(F)c1C2 [Compound 253, (5R,8S)-N-(5-(benzo[c][1,2,5]oxadiazol-5-yl)-2-fluoro-4-(trifluoromethyl)phenyl)-1-fluoro-6,7,8,9-tetrahydro-5H-5,8-epiminocyclohepta[c]pyridine-10-carboxamide] | < 500 |
| O=C(Nc1cc(Cl)c(C(F)(F)F)cc1F)N1[C@@H]2CC[C@H]1[C@@H](F)c1c2ccnc1F [Compound 296, (5R,8S,9S)-N-(5-Chloro-2-fluoro-4-(trifluoromethyl)phenyl)-1,9-difluoro-6,7,8,9-tetrahydro-5H-5,8-epiminocyclohepta[c]pyridine-10-carboxamide] | < 500 |
| O=C(Nc1cc(Cl)c(-c2ccc(OCC(F)(F)F)nc2)cc1F)N1[C@H]2CC[C@@H]1c1n[nH]c(=O)cc1C2 [Compound 215, (6S,9R)-N-(5-Chloro-2-fluoro-4-(6-(2,2,2-trifluoroethoxy)pyridin-3-yl)phenyl)-3-oxo-3,5,6,7,8,9-hexahydro-2H-6,9-epiminocyclohepta[c]pyridazine-10-carboxamide] | < 500 |
| N#Cc1cc(F)c(NC(=O)N2[C@H]3CC[C@@H]2c2n[nH]c(=O)cc2C3)cc1Cl [Compound 111, (6S,9R)-N-(5-Chloro-4-cyano-2-fluorophenyl)-3-oxo-3,5,6,7,8,9-hexahydro-2H-6,9-epiminocyclohepta[c]pyridazine-10-carboxamide] | < 500 |
| O=C(Nc1cc(Cl)c(Cl)cc1F)N1C2CCC1c1ncnc(F)c1C2 (racemic) [Compound 87, (±)—N-(4,5-Dichloro-2-fluorophenyl)-4-fluoro-6,7,8,9-tetrahydro-5H-6,9-epiminocyclohepta[d]pyrimidine-10-carboxamide] | < 500 |
| O=C(Nc1cc(Cl)c(-c2ccc(F)nc2)cc1F)N1[C@H]2CC[C@@H]1c1ccnc(F)c1C2 [Compound 169, (5R,8S)-N-(5-Chloro-2-fluoro-4-(6-fluoropyridin-3-yl)phenyl)-1-fluoro-6,7,8,9-tetrahydro-5H-5,8-epiminocyclohepta[c]pyridine-10-carboxamide] | < 500 |
| COc1ccc(-c2cc(F)c(NC(=O)N3[C@H]4CC[C@@H]3c3n[nH]c(=O)cc3C4)cc2F)cn1 [Compound 247, (6S,9R)-N-(2,5-Difluoro-4-(6-methoxypyridin-3-yl)phenyl)-3-oxo-3,5,6,7,8,9-hexahydro-2H-6,9-epiminocyclohepta[c]pyridazine-10-carboxamide] | < 500 |
| O=C(Nc1cc(Cl)c(-c2cc(F)cnc2F)cc1F)N1[C@H]2CC[C@@H]1c1n[nH]c(=O)cc1C2 [Compound 182, (6S,9R)-N-(5-Chloro-4-(2,5-difluoropyridin-3-yl)-2-fluorophenyl)-3-oxo-3,5,6,7,8,9-hexahydro-2H-6,9-epiminocyclohepta[c]pyridazine-10-carboxamide] | < 500 |
| O=C(Nc1ccc(C2COC2)cc1)N1[C@H]2CC[C@@H]1c1ccnc(F)c1C2 [Compound 58, (5R,8S)-1-Fluoro-N-(4-(oxetan-3-yl)phenyl)-6,7,8,9-tetrahydro-5H-5,8-epiminocyclohepta[c]pyridine-10-carboxamide] | 500 to 5000 |
| C=C1c2c(ccnc2F)C2CCC1N2C(=O)Nc1cc(Cl)c(Cl)cc1F (racemic) [Compound 154, (±)—N-(4,5-Dichloro-2-fluorophenyl)-1-fluoro-9-methylene-6,7,8,9-tetrahydro-5H-5,8-epiminocyclohepta[c]pyridine-10-carboxamide] | < 500 |

Same assay, conditions: 1321N1-hrGPR65 cells, cAMP HTRF, assay pH 7.2; read-out: hGPR65 IC50 (Activity of selected compounds according to the invention)

| Structure (SMILES) | IC50 [nM] |
| --- | --- |
| O=C(Nc1cc(Cl)c(C(F)(F)F)cc1F)N1C2CCC1[C@@H](O)c1c2ccnc1F (mixture of isomers) [Compound 156, (±)-(9S)—N-(5-chloro-2-fluoro-4-(trifluoromethyl)phenyl)-1-fluoro-9-hydroxy-6,7,8,9-tetrahydro-5H-5,8-epiminocyclohepta[c]pyridine-10-carboxamide] | 500 to 5000 |
| N#Cc1cnccc1-c1cc(F)c(NC(=O)N2[C@H]3CC[C@@H]2c2n[nH]c(=O)cc2C3)cc1Cl [Compound 179, (6S,9R)-N-(5-Chloro-4-(3-cyanopyridin-4-yl)-2-fluorophenyl)-3-oxo-3,5,6,7,8,9-hexahydro-2H-6,9-epiminocyclohepta[c]pyridazine-10-carboxamide] | 500 to 5000 |
| O=C(Nc1cc(Cl)c(Cl)cc1F)N1[C@@H]2CC[C@H]1[C@@H](F)c1ccnc(F)c12 (racemic) [Compound 284, ±(5-endo)-N-(4,5-dichloro-2-fluorophenyl)-1,5-difluoro-6,7,8,9-tetrahydro-5H-6,9-epiminocyclohepta[c]pyridine-10-carboxamide] | 500 to 5000 |
| COc1ccc2c(n1)C[C@@H]1CC[C@H]2N1C(=O)Nc1cc(Cl)c(Cl)cc1F [Compound 54, (5R,8S)-N-(4,5-Dichloro-2-fluorophenyl)-2-methoxy-6,7,8,9-tetrahydro-5H-5,8-epiminocyclohepta[b]pyridine-10-carboxamide] | > 5000 |
| O=C(Nc1cc(-c2cccnc2F)c(-c2cccnc2F)cc1F)N1[C@H]2CC[C@@H]1c1n[nH]c(=O)cc1C2 [Compound 116, (6S,9R)-N-(2-Fluoro-4,5-bis(2-fluoropyridin-3-yl)phenyl)-3-oxo-3,5,6,7,8,9-hexahydro-2H-6,9-epiminocyclohepta[c]pyridazine-10-carboxamide] | 500 to 5000 |
| O=C(Nc1cc(Cl)c(-c2ccnnc2)cc1F)N1[C@H]2CC[C@@H]1c1n[nH]c(=O)cc1C2 [Compound 174, (6S,9R)-N-(5-Chloro-2-fluoro-4-(pyridazin-4-yl)phenyl)-3-oxo-3,5,6,7,8,9-hexahydro-2H-6,9-epiminocyclohepta[c]pyridazine-10-carboxamide] | > 5000 |
| O=C(Nc1cc(Cl)c(C(F)(F)F)cn1)N1C2CCC1c1n[nH]c(=O)cc1C2 (racemic) [Compound 12, (±)-N-(4-Chloro-5-(trifluoromethyl)pyridin-2-yl)-3-oxo-3,5,6,7,8,9-hexahydro-2H-6,9-epiminocyclohepta[c]pyridazine-10-carboxamide] | 500 to 5000 |
| NC(=O)c1ccc(-c2cc(F)c(NC(=O)N3[C@H]4CC[C@@H]3c3n[nH]c(=O)cc3C4)cc2Cl)cc1 [Compound 129, (6S,9R)-N-(4′-Carbamoyl-2-chloro-5-fluoro-[1,1′-biphenyl]-4-yl)-3-oxo-3,5,6,7,8,9-hexahydro-2H-6,9-epiminocyclohepta[c]pyridazine-10-carboxamide] | 500 to 5000 |
